Measured values reported in paper PMC9706565, “Covalently Conjugated NOD2/TLR7 Agonists Are Potent and Versatile Immune Potentiators” (Journal of Medicinal Chemistry, 2022).
≈ marks a conversion by molar mass, not a printed value. Like-named read-outs stand apart in the source and are kept apart here.

Key:
TLR7 = target: T1, TLR7 (Homo sapiens, UniProt Q9NYK1); assay: NF-κB transcriptional activity (SEAP reporter) in HEK-Blue TLR7 cells; format: cell-based; details: for EC50: HEK-Blue TLR7 cells, 18 h, eight concentrations 1 nM to 10 μM, NA, not active; for fold improved TLR7 activity over 1: ratio of EC50 values in HEK-Blue TLR7 cells
T1 construct: host or cells: HEK-Blue TLR7 (HEK293-derived)
T1 sequence (Q9NYK1 27-1049): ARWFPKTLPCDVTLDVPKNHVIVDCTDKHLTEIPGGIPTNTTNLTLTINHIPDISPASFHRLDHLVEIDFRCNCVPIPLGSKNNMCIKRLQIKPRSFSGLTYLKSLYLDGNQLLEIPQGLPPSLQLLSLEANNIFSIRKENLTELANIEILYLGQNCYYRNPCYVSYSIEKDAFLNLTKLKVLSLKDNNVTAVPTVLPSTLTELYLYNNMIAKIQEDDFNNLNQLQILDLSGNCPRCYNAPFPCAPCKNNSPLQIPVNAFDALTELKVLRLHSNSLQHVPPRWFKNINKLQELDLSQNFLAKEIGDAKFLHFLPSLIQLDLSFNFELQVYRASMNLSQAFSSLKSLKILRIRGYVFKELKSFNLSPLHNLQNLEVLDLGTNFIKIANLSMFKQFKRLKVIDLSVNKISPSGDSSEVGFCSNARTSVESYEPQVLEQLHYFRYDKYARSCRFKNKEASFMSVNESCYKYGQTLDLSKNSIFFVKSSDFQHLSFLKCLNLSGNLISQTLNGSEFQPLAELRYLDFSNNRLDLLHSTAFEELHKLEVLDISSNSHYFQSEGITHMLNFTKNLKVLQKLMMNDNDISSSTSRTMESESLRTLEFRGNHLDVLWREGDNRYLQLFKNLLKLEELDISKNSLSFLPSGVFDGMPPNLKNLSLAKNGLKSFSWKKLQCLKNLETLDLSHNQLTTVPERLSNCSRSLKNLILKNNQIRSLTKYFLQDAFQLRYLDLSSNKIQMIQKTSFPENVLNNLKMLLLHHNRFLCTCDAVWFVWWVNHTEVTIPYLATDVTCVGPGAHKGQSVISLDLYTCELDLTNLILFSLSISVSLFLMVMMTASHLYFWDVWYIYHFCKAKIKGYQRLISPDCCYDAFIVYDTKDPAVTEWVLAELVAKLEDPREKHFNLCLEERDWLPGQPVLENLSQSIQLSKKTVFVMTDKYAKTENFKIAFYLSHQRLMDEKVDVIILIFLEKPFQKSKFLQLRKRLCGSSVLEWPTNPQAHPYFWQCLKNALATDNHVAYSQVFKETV
Text: (§1) HEK-Blue NOD1 (Cat. code: hkb-hnod1), NOD2 (Cat. code: hkb-hnod2), and TLR7 (Cat. code: hkb-htlr7) cell lines (Invivogen, San Diego, CA) are derived from HEK293 cells by co-transfection of the hNOD1, hNOD2, or hTLR7 genes, respectively, and a nuclear factor-κB (NF-κB)-inducible secreted embryonic alkaline phosphatase (SEAP) reporter gene. Following activation of the respective receptors, the resulting NF-κB induces the production of SEAP, the levels of which can be quantified colorimetrically. […] All of the subsequent passages were cultured in medium additionally supplemented with 100 μg/mL Zeocin (Invivogen) and 30 μg/mL Blasticidin (Invivogen) for HEK-Blue NOD1 and NOD2 cells, or with 100 μg/mL Zeocin (Invivogen) and 10 μg/mL Blasticidin (Invivogen) for HEK-Blue TLR7 cells.
(§2) After 18 h of incubation (37 °C, 5% CO2), SEAP activity was determined spectrophotometrically as absorbance at 630 nm (BioTek Synergy microplate reader; Winooski, VT). EC50 values were calculated using the Prism software (version 9; GraphPad Software, CA).

human PBMCs [1] = assay: Cytokine release from peripheral blood mononuclear cells; format: cell-based; details: 1 μM, 18 h
Method: Human PBMCs from healthy and consenting donors were isolated from heparinized blood by density gradient centrifugation using Ficoll-Paque (Pharmacia, Sweden).
Peripheral blood mononuclear cells were seeded (1 × 10^6 cells/mL) in 24-well plates in 500 μL of growth medium and treated with the compounds (1 μM), lipopolysaccharide (LPS; 1 μg/mL), or the corresponding vehicle (0.1% DMSO). Cell-free supernatants were collected after 18 h of incubation (37 °C, 5% CO2) and stored at −80 °C until tested. Cytokine production was determined with BD Cytometric Bead Array human inflammatory cytokines kit (BD Bioscience) on an Attune NxT flow cytometer (Thermo Fisher Scientific, Waltham, MA). Standard curves were generated using recombinant cytokines contained in the kit. The data were analyzed using the FlowJo (Tree Star, Inc., Ashland, OR) and Prism (GraphPad, San Diego, CA) software. Statistical significance was determined with one-way ANOVA with subsequent Bonferroni’s multiple comparisons test.

[2] = Kinetic solubility measurement; format: physicochemical; details: for solubility at 2 h: phosphate-buffered saline, aqueous buffer, kinetic from dmso stock, kinetic, PBS pH 7.4, 2% DMSO, 2 h room temperature
Method: The content of DMSO in all solutions was fixed to 2% by adding the respective amounts of DMSO. The column used was Waters Acquity UPLC BEH C18 (1.7 μm, 2.1 × 50 mm^2). […] The column was thermostated at 40 °C.

K562 cells = assay: PBMC cytotoxicity against K562 cancer cells; format: cell-based; details: for cytolytic activity of PBMCs against K562 cells: PBMCs stimulated 18 h, 1 μM, 4 h coincubation, effector:target 40:1
Method: (§3) K562 cells are a chronic myelogenous leukemia cell line (Cat. code: CCL-243; ATCC, Manassas, VA)[60] and MEC1 cells are a B-chronic lymphocytic leukemia cell line (Cat. code: ACC 497; DSMZ GmbH, Braunschweig, Germany).[61]
(§4) The PBMC cytotoxicity assays using K562 and MEC1 cells were performed as described previously, with some modifications.[64] PBMCs were seeded (4 × 10^5 cells/well) in duplicate in 96-well U-bottom plates and treated with the compounds (1 nM–1 μM) or vehicle (0.1% DMSO) for 18 h. […] Cells that were positive for both CFSE and Sytox blue were defined as dead K562 and MEC1 cells. The gating strategy is described in Figure S4. PBMCs alone and CFSE-labeled cancer cells alone were also treated with the compounds at the same concentrations and stained with Sytox blue to exclude any direct cytotoxicity of the compounds toward the PBMCs and cancer cells. Statistical significance was determined with one-way ANOVA with subsequent Bonferroni’s multiple comparisons test.

MEC1 cells = assay: PBMC cytotoxicity against MEC1 cancer cells; format: cell-based, human; details: PBMCs stimulated 18 h, 1 μM; 4 h coincubation, effector:target 40:1
Method: as §3, §4

NOD2 = target: T2, NOD2 (Homo sapiens, UniProt Q9HC29); assay: NF-κB transcriptional activity (SEAP reporter) in HEK-Blue NOD2 cells; format: cell-based; details: 18 h; for EC50: eight concentrations 1 nM to 10 μM, NA, not active
T2 construct: host or cells: HEK-Blue NOD2 (HEK293-derived)
T2 sequence (Q9HC29 whole entry): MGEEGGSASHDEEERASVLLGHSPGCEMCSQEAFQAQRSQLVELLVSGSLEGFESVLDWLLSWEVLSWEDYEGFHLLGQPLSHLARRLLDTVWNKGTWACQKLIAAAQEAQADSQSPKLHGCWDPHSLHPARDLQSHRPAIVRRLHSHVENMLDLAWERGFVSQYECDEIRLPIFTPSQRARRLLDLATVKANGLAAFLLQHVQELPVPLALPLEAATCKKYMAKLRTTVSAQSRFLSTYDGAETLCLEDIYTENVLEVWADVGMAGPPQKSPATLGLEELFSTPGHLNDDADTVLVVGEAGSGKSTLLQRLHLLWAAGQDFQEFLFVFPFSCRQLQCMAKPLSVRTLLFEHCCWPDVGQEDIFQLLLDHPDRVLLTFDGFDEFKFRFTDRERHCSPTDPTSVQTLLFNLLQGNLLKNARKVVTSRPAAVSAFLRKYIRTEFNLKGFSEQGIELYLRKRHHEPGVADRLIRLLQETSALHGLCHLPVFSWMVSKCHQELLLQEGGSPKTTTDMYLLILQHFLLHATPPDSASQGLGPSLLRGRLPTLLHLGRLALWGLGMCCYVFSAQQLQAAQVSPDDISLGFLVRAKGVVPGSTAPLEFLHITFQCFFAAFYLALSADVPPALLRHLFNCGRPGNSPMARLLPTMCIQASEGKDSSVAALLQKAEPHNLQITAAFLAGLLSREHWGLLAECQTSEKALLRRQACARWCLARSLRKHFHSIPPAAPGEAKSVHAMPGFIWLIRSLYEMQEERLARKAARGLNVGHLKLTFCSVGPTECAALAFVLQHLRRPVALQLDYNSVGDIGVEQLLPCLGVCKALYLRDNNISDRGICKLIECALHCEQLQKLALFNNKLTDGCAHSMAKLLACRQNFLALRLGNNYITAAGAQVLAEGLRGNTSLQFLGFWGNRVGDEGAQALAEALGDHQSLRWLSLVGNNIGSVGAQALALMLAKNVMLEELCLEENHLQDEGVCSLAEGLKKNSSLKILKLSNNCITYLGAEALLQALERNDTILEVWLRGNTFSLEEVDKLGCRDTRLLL
Text: as §1, §2

RAW-Blue cells = assay: NF-κB transcriptional activity in RAW-Blue cells with or without NOD2/TLR7 antagonists; format: cell-based, murine; details: 1 μM, 18 h; SG84 (5 μM), M5049 (1 μM)
Method: After the first two passages, 200 μg/mL Zeocin (Invivogen) was added to the medium every other passage, to maintain the selection pressure.
RAW-Blue cells were seeded (100,000 cells/well) in duplicate in 96-well plates in 200 μL of growth medium (without Normocin and Zeocin) and pretreated with a NOD2 antagonist SG84 (5 μM),[35] TLR7 antagonist M5049 (1 μM),[36] or both for 1 h, before the addition of compounds (1 μM) or the corresponding vehicle (0.1% DMSO). After 18 h of incubation (37 °C, 5% CO2), 10 μL of the induced supernatant was added to 90 μL of QUANTI-Blue solution (Invivogen). After 2 h of incubation (37 °C), SEAP activity was determined spectrophotometrically as absorbance at 630 nm (BioTek Synergy microplate reader; Winooski, VT). Statistical significance was determined with two-way ANOVA with subsequent Dunnett’s multiple comparisons test.

NIH/OlaHsd mice = assay: Mouse immunization with OVA, OVA-specific serum antibodies (ELISA); format: in vivo; details: s.c. days 0, 21, 42; OVA 10 μg + compound 50 μg; 7 days after last dose
Method: NIH/OlaHsd inbred mice were raised at the Institute of Immunology, Croatia. All mice used were females, from 2.0 to 2.5 months old. During the experimental period, the mice were housed in the Animal Facility of the Institute of Immunology, with food and water provided ad libitum.
Sex-matched NIH/OlaHsd mice (five per group) were immunized subcutaneously into the tail base with OVA (10 μg; Serva, Germany) alone or plus the compounds (50 μg) on days 0, 21, and 42. The injection volume in all of the experimental groups was 0.1 mL per mouse. On the seventh day after the second booster dose, the mice were anesthetized with i.p. application of ketamine/xylazine (25 mg/kg each) prior to blood collection from the axillary plexus. Individual sera from each animal were decomplemented at 56 °C for 35 min and then stored at −20 °C until tested.
The levels of the OVA-specific total IgG, IgG1, and IgG2a in mice sera were determined by ELISA. Briefly, high-binding ELISA plates (Costar) were coated with a 15 μg/mL solution of OVA (Serva, Germany) in carbonate buffer (pH 9.6). Nonspecific antibody binding was blocked by 0.5% w/v bovine serum albumin in PBS-T (0.05% [v/v] Tween 20 in PBS) for 2 h at 37 °C. After washing, five serial dilutions of mice sera and standard preparations were added in duplicates. Plates were incubated overnight at room temperature, washed, and analyzed for OVA-specific IgG levels by incubation with HRP-conjugated goat anti-mouse IgG (2 h at 37 °C; Bio-Rad Laboratories), and then after washing, with 0.6 mg/mL o-phenylenediaminedihydrochloride solution in citrate-phosphate buffer, pH 5.0, with 0.5 μL 30% H2O2/mL for 30 min at room temperature in the dark. The enzymatic reaction was stopped with 12.5% H2SO4, and absorbance at 492 nm was measured using a microplate reader (Thermo Fisher Scientific, Waltham, MA).
For the determination of OVA-specific IgG1 and IgG2a, the plates were incubated with biotin-conjugated rat anti-mouse IgG1 or IgG2a (2 h at 37 °C; PharMingen, Becton Dickinson) and subsequently with streptavidin-peroxidase (Pharmingen) for 2 h at 37 °C. After washing, the substrate solution was added and incubated for 30 min at room temperature in the dark, as described above. The enzymatic reaction was stopped with 12.5% H2SO4 and absorbance at 492 nm was measured using a microplate reader. The relative quantities of antibodies were determined by parallel line assays using appropriate standard preparations of anti-OVA IgG, anti-OVA IgG1, and anti-OVA IgG2a antibodies with voluntarily assigned 20.000 AU/mL, 400.000 AU/mL, and 5000 AU/mL, respectively.[65] Statistical significance was determined with one-way ANOVA with subsequent Dunnett’s multiple comparisons test.

human PBMCs [3] = format: cell-based
[4] = tested 1 nM-1 μM, cancer cell line not specified (K562 or MEC1, Figure S5)

CCCCOc1nc(N)c2nc(O)n(Cc3ccc(C(=O)O)cc3)c2n1 [Compound 1, 4-((6-Amino-2-butoxy-8-hydroxy-9H-purin-9-yl)methyl)benzoic acid, reference compound]
EC50 (TLR7): 398 nM

CCOC(=O)CC[C@@H](NC(=O)[C@@H](NC(=O)CNC(=O)/C=C/c1ccc(O)c(OC)c1)C(C)C)C(=O)OCC [Compound 2, Diethyl ((E)-3-(4-hydroxy-3-methoxyphenyl)acryloyl)glycyl-L-valyl-D-glutamate]
IL-8 production (human PBMCs [1]): significant increase

CCCCOc1nc(N)c2nc(O)n(Cc3ccc(C(=O)NCCCCCC(=O)Oc4ccc(/C=C/C(=O)NCC(=O)N[C@H](C(=O)N[C@H](CCC(=O)OCC)C(=O)OCC)C(C)C)cc4OC)cc3)c2n1 [Compound 3, Diethyl ((E)-3-(4-((6-(4-((6-amino-2-butoxy-8-hydroxy-9H-purin-9-yl)methyl)benzamido)hexanoyl)-oxy)-3-methoxyphenyl)acryloyl)glycyl-L-valyl-D-glutamate]
EC50 (TLR7): 161 nM
fold improved TLR7 activity over 1 (TLR7): approximately 2 fold
solubility at 2 h [2]: 27.4 µM (≈ 27.1 µg/mL)
cytolytic activity of PBMCs against K562 cells (K562 cells): significantly enhanced
concentration at which significant PBMC cytotoxicity was observed (K562 cells; [4]): 1 µM
cytolytic activity of PBMCs against MEC1 cells (MEC1 cells): significantly enhanced
EC50 (NOD2): 114 nM
RAW-Blue activity in the presence of NOD2 or TLR7 antagonist (RAW-Blue cells): decrease in activity after antagonizing TLR7 was more prominent

CCCCOc1nc(N)c2nc(O)n(Cc3ccc(C(=O)NCCOCCNC(=O)CC[C@@H](NC(=O)[C@@H](NC(=O)CNC(=O)/C=C/c4ccc(O)c(OC)c4)C(C)C)C(=O)OCC)cc3)c2n1 [Compound 4, Ethyl N5-(2-(2-(4-((6-amino-2-butoxy-8-hydroxy-9H-purin-9-yl)methyl)benzamido)ethoxy)ethyl)-N2-((E)-3-(4-hydroxy-3-methoxyphenyl)acryloyl)glycyl-L-valyl-D-glutaminate]
EC50 (TLR7): 36 nM
fold improved TLR7 activity over 1 (TLR7): 10 fold
fold higher solubility of 4 than 3 ([2]; kinetic solubility, Table S2): approximately 2 fold
solubility at 2 h [2]: 58.2 µM (≈ 54.3 µg/mL)
IgG2a/IgG1 ratio (Th1/Th2 polarization) (NIH/OlaHsd mice): trend toward increased IgG2a/IgG1 ratios
OVA-specific IgG1 titers (NIH/OlaHsd mice): increased the titers
OVA-specific IgG2a titers (NIH/OlaHsd mice): increased the titers
serum OVA-specific IgG titers (NIH/OlaHsd mice): significantly higher
cytolytic activity of PBMCs against K562 cells (K562 cells): significantly enhanced
lowest concentration with significant effect on PBMC cytotoxicity (K562 cells; [4]): 10 nM
Genes in KEGG pathway, 4-enriched (human PBMCs [3]; Chemokine signaling pathway (total 182)): 40
Genes in KEGG pathway, 4-enriched (human PBMCs [3]; Hematopoietic cell lineage (total 97)): 31
Genes in KEGG pathway, 4-enriched (human PBMCs [3]; Influenza A (total 182)): 33
Genes in KEGG pathway, 4-enriched (human PBMCs [3]; NF-kappa B signaling pathway (total 107)): 25
transcription of IFN-γ and both IL-12 subunits (IL12A, IL12B) (human PBMCs [3]; PBMCs, 1 μM, 18 h): strongly upregulated
transcription of IL-17A, IL-17F, IL-22 and IL-26 (human PBMCs [3]; PBMCs, 1 μM, 18 h): induced transcription
transcription of Th2-associated genes (IL-4, IL-5, IL-13, STAT6, GATA3) (human PBMCs [3]; PBMCs, 1 μM, 18 h): remained unchanged
number of significantly downregulated genes (human PBMCs [3]; PBMCs, three donors, 1 μM, 18 h, FDR <0.05, fold-change <0.5): 877
number of significantly upregulated genes (human PBMCs [3]; PBMCs, three donors, 1 μM, 18 h, […]): 962
Genes in KEGG pathway, 4-enriched (human PBMCs [3]; Pathways in cancer (total 395)): 56
Genes in KEGG pathway, 4-enriched (human PBMCs [3]; Phagosome (total 168)): 33
Genes in KEGG pathway, 4-enriched (human PBMCs [3]; Rheumatoid arthritis (total 99)): 25
Genes in KEGG pathway, 4-enriched (human PBMCs [3]; TNF signaling pathway (total 115)): 28
Genes in KEGG pathway, 4-enriched (human PBMCs [3]; Transcriptional misregulation in cancer (total 204)): 37
cytolytic activity of PBMCs against MEC1 cells (MEC1 cells): significantly enhanced
NOD2 activation at the highest concentration tested (NOD2; 10 μM): activated NOD2 only to a minor extent
EC50 (NOD2): > 10000 nM
IL12p70 secretion (human PBMCs [1]): induced secretion of IL12p70
production of IL-1β, IL-6, IL-8, IL-10 and TNF (human PBMCs [1]): considerably stronger effects compared to 3
